Results on two compounds are retold here after paper PMC9127186, “Molecular Basis Underlying Hepatobiliary and Renal Excretion of Phenolic Acids of Salvia miltiorrhiza Roots (Danshen)” (Frontiers in Pharmacology, 2022).

One data set has as its target T1, rat Oatp1a1 (Rattus norvegicus, UniProt P46720).
T1 sequence (P46720 1-670): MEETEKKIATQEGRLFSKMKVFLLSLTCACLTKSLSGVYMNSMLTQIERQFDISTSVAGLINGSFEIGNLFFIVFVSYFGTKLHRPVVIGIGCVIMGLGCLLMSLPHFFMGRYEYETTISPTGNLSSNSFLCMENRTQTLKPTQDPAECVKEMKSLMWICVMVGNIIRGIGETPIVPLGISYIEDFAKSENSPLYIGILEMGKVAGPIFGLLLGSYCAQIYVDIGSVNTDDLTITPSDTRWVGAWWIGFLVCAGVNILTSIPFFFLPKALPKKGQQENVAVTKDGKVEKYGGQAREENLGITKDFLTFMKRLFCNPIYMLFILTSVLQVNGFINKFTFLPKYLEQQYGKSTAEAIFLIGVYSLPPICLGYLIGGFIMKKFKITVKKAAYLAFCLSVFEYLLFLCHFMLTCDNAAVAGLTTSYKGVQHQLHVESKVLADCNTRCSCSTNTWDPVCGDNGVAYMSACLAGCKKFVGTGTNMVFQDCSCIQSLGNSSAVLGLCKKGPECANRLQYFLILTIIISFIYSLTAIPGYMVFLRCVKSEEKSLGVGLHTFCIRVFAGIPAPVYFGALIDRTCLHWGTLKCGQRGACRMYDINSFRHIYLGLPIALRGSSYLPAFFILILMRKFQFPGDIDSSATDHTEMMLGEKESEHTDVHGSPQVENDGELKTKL
Particulars: 10 min, 100 μM.

Another data set addresses T2, rat Oct2 (Rattus norvegicus, UniProt Q9R0W2).
T2 sequence (Q9R0W2 1-555): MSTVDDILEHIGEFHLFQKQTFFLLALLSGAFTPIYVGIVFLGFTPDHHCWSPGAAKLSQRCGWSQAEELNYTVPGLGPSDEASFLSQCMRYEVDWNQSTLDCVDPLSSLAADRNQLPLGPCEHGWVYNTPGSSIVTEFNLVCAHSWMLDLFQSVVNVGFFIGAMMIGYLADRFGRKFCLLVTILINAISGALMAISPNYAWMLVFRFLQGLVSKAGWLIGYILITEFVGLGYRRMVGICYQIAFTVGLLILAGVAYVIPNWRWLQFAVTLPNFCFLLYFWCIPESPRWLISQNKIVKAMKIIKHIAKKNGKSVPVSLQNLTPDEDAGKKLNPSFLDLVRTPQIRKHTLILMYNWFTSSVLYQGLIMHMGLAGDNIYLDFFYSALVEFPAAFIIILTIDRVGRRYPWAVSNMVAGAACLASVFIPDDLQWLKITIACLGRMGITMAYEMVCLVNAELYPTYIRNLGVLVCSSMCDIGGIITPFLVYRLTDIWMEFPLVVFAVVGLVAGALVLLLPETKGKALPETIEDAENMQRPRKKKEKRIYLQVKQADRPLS
Particulars: 10 min, 100 μM.

A further data set concerns the target T3, rat Ntcp (Rattus norvegicus, UniProt P26435).
T3 sequence (P26435 1-362): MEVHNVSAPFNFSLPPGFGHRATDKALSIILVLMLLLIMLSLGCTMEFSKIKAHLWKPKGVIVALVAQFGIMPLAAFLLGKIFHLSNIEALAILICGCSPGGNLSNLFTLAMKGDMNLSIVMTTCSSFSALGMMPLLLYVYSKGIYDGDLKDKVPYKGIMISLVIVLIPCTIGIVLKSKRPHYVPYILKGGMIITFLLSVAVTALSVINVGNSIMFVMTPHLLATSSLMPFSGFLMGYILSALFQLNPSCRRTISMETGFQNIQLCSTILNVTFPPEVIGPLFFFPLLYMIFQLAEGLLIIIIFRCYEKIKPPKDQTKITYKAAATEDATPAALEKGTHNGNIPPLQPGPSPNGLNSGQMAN
Particulars: 10 min, 100 μM.

Another data set has as its target T4, human PEPT2 (Homo sapiens, UniProt Q16348).
T4 sequence (Q16348 1-729): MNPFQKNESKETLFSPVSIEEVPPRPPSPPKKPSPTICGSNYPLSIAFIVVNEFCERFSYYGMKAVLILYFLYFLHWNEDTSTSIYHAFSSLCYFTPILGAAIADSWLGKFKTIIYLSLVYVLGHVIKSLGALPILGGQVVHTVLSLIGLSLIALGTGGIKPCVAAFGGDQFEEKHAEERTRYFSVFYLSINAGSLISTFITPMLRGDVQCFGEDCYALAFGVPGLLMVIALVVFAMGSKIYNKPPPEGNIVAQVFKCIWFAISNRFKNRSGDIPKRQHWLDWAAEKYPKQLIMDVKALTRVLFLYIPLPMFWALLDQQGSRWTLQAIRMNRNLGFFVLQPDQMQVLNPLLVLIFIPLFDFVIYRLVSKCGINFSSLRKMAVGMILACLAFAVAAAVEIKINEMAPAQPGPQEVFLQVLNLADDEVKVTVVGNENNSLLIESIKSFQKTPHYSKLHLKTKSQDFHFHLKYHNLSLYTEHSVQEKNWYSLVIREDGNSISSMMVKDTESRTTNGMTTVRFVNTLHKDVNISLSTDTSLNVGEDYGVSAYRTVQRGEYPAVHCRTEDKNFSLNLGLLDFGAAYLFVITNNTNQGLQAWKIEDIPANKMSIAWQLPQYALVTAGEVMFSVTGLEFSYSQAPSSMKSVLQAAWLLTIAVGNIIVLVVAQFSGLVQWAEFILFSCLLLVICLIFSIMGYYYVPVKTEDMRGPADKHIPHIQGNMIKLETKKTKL
Particulars: 10 min, 100 μM, pH 6.

SMILES strings stand for the structures.

On to `O=C(/C=C/c1ccc(O)c(O)c1)O[C@H](Cc1ccc(O)c(O)c1)C(=O)O` [Rosmarinic acid, rosmarinic acid], for which the “TransportTC/TransportMC ratio (net transport ratio)” value on rat Oatp1a1 worked out at 1.45 ± 0.57; at rat Oct2, 0.75 ± 0.32; at rat Ntcp, 1.68 ± 0.25; at human PEPT2 it was 1.12 ± 0.22.

Consider `O=C(/C=C/c1ccc(O)c(O)c1/C=C/c1ccc(O)c(O)c1)O[C@H](Cc1ccc(O)c(O)c1)C(=O)O` [Salvianolic acid A, salvianolic acid A], for which the “TransportTC/TransportMC ratio (net transport ratio)” value at rat Oatp1a1 is reported as 2.24 ± 0.67; at rat Oct2 it was 0.94 ± 0.33; at rat Ntcp, 0.84 ± 0.13; on human PEPT2, 1.14 ± 0.31.
